From US6627653B2, “Anticonvulsant derivatives useful for the treatment of depression” (Ortho-McNeil Pharmaceutical, Inc., priority 2000, dated 2003)
Read-outs that look alike come from different tables or passages of the source.

What was measured:
[1] = Clinical case study, Example 1: topiramate added to existing pharmacotherapy; format: in vivo, human
Protocol: In the first case, the patient was a person who had suffered from depression for 25 years.
Topiramate was prescribed for the patient as add-on therapy to existing treatment of venlafaxine at 225 mg/day and mirtazapine at 30 mg/day. Topiramate treatment was initiated at 25 mg/day, with increased dosage to 150 mg/day. […] After six months, mirtazapine was withdrawn and topiramate daily dosage increased to 200 mg/day.
Following one year, topiramate and venlafaxine were withdrawn because of a surgical procedure. […] The patient was subsequently restarted on topiramate at 300 mg/day.

[2] = Clinical case study, Example 2: topiramate add-on therapy; format: in vivo, human; conditions: for previous pharmacological treatment of patient's depression, outcome: treatment history of the Example 2 patient
Protocol: Initially the patient was started on topiramate add-on therapy at 25 mg/day, with increased dosage to 150 mg/day over the course of one month, in response to the patient's clinical behavior (the patient experienced suicidal ideation). One month later, the topiramate therapy was further increased to 300 mg/day, with the patient also taking 20 mg/day methylphenidate and 150 mg/day venlafaxine.

[3] = adjunctive therapy or monotherapy; cited from earlier work
[4] = several rodent models of epilepsy; cited from earlier work
[5] = animal model of kindled epilepsy; cited from earlier work

CC1(C)O[C@@H]2[C@@H](CO[C@@]3(COS(N)(=O)=O)OC(C)(C)O[C@@H]23)O1 [topiramate, 2,3:4,5-bis-O-(1-methylethylidene)-β-D-fructopyranose sulfamate]
clinical evaluation of depression ([1]; after eight months, topiramate 300 mg/day): very much improved
clinical evaluation of depression ([1]; after six months, mirtazapine withdrawn, topiramate 200 mg/day): very much improved
clinical evaluation of depression ([1]; after two months, topiramate 150 mg/day add-on to venlafaxine 225 mg/day and mirtazapine 30 mg/day): very mild depressive
patient-reported state after restart ([1]; restarted on topiramate 300 mg/day after relapse, following six months of treatment): feeling very well
patient-reported state ([2]; after three month of treatment): never felt so well
mood state ([2]; at eight months of therapy, venlafaxine 150 mg/day and topiramate 300 mg/day): normothymic
clinical rating of depression ([2]; topiramate 300 mg/day with methylphenidate 20 mg/day and venlafaxine 150 mg/day, about two months): much improved
efficacy in treating seizures [3]: effective
block of seizures [4]: effectively block seizures
block of seizures [5]: effectively block seizures

N[C@@H]1C[C@H]1c1ccccc1 (racemic) [tranylcypromine]
previous pharmacological treatment of patient's depression, outcome [2]: unsuccessful

CN(C)CCC=C1c2ccccc2CCc2ccccc21 [amitriptyline]
previous pharmacological treatment of patient's depression, outcome [2]: unsuccessful
